Test results reported in patent publication US9353104B2, “Substituted pyridizinone derivatives as PDE10 inhibitors” (priority 2013, dated 2016).

Molecular target: human PDE10A2 (Homo sapiens (Human), UniProt Q9Y233)
Experiment: PDE10 fluorescence polarization (IMAP FP) inhibition assay
Assay type: biochemical
Details: human PDE10A2 lysate, FAM-labeled cAMP 50 nM, room temperature; read-out: PDE10A Ki
Protocol: The activity of the compounds in accordance with the present invention as PDE10 inhibitors may be readily determined without undue experimentation using a fluorescence polarization (FP) methodology that is well known in the art (Huang, W., et al., J. Biomol Screen, 2002, 7: 215). […] In a typical experiment the PDE10 inhibitory activity of the compounds of the present invention was determined in accordance with the following experimental method. PDE10A2 was amplified from human fetal brain cDNA (Clontech, Mountain View, Calif.) using a forward primer corresponding to nucleotides 56-77 of human PDE10A2 (Accession No. AF127480, Genbank Identifier 4894716), containing a Kozak consensus sequence, and a reverse primer corresponding to nucleotides 2406-2413 of human PDE10A2 (Accession No. AF127480, Genbank Identifier 4894716). Amplification with Easy-A polymerase (Stratagene, La Jolla, Calif.) was 95° C. for 2 minutes followed by thirty three cycles of 95° C. for 40 seconds, 55° C. for 30 seconds, and 72° C. for 2 minutes 48 seconds. Final extension was 72° C. for 7 minutes. The PCR product was TA cloned into pcDNA3.2-TOPO (Invitrogen, Carlsbad, Calif.) according to standard protocol. AD293 cells with 70-80% confluency were transiently transfected with human PDE10A2/pcDNA3.2-TOPO using Lipofectamine 2000 according to manufacturer specifications (Invitrogen, Carlsbad, Calif.). Cells were harvested 48 hours post-transfection and lysed by sonication (setting 3, 10×5 sec pulses) in a buffer containing 20 mM HEPES, 1 mM EDTA and protease inhibitor cocktail (Roche). Lysate was collected by centrifugation at 75,000×g for 20 minutes. Supernatant containing the cytoplasmic fraction was used for evaluation of PDE10A2 activity. The fluorescence polarization assay for cyclic nucleotide phosphodiesterases was performed using an IMAP® FP kit supplied by Molecular Devices, Sunnyvale, Calif. (product #R8139). IMAP® technology has been applied previously to phosphodiesterase assays (Huang, W., et al., J. Biomol Screen, 2002, 7: 215). Assays were performed at room temperature in 384-well microtiter plates with an incubation volume of 20.2 μL. Solutions of test compounds were prepared in DMSO and serially diluted with DMSO to yield 8 μL of each of 10 solutions differing by 3-fold in concentration, at 32 serial dilutions per plate. 100% inhibition is determined using a known PDE10 inhibitor, which can be any compound that is present at 5,000 times its Ki value in the assay described as follows, such as papaverine (see Siuciak, et al. Neuropharmacology (2006) 51:386-396; Becker, et al. Behav Brain Res (2008) 186(2):155-60; Threlfell, et al., J Pharmacol Exp Ther (2009) 328(3):785-795), 2-{4-[pyridin-4-yl-1-(2,2,2-trifluoroethyl)-1H-pyrazol-3-yl]phenoxymethyl}quinoline succinic acid or 2-[4-(1-methyl-4-pyridin-4-yl-1H-pyrazol-3-yl)-phenoxymethyl]quinoline succinic acid (see Schmidt, et al. J Pharmacol Exp Ther (2008) 325:681-690; Threlfell, et al., J Pharmacol Exp Ther (2009) 328(3): 785-795). 0% of inhibition is determined by using DMSO (1% final concentrations).
A Labcyte Echo 555 (Labcyte, Sunnyvale, Calif.) is used to dispense 200 nL from each well of the titration plate to the 384 well assay plate. A solution of enzyme (1/1600 dilution from aliquots; sufficient to produce 20% substrate conversion) and a separate solution of FAM-labeled cAMP PDE from Molecular Devices (product #R7506), at a final concentration of 50 nM are made in the assay buffer (10 mM Tris HCl, pH 7.2, 10 mM MgCl2, 0.05% NaN3 0.01% Tween-20, and 1 mM DTT). The enzyme and the substrate are then added to the assay plates in two consecutive additions of 10 μL, and then shaken to mix. The reaction is allowed to proceed at room temperature for 30 minutes. A binding solution is then made from the kit components, comprised of 80% Solution A, 20% Solution B and binding reagent at a volume of 1/600 the total binding solution.

human PDE10A2, sequence (Q9Y233 267-1055): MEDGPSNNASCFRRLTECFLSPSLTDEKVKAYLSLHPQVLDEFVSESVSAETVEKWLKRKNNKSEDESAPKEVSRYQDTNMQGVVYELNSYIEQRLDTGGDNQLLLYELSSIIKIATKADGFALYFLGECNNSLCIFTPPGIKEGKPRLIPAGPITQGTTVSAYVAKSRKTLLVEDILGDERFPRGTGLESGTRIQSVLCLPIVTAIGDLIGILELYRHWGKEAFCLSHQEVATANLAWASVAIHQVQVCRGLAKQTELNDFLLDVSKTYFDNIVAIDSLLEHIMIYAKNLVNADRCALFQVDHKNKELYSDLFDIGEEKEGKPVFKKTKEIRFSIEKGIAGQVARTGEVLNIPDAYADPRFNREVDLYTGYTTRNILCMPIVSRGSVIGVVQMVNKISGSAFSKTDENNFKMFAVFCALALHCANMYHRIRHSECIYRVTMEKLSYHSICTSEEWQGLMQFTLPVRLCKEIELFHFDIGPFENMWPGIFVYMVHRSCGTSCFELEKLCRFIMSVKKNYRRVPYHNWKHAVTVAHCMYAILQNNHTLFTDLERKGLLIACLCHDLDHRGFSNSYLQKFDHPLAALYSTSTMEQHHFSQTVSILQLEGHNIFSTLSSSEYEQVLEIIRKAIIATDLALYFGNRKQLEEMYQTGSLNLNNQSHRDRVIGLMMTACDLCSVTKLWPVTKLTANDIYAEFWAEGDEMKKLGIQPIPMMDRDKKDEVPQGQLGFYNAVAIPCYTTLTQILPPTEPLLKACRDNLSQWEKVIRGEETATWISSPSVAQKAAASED

Row | Ki [nM] | SMILES
1 | 0.197 | Cn1cc(CNc2cc(OC[C@@H]3C[C@H]3c3nn(C)c4ccccc34)nn(C)c2=O)cn1 [Example 113, 2-methyl-6-(((1R,2R)-2-(1-methyl-1H-indazol-3-yl)cyclopropyl)methoxy)-4-((1-methyl-1H-pyrazol-4-yl)methylamino) pyridazin-3(2H)-one]
2 | 0.011 | Cc1ccc([C@H]2C[C@@H]2COc2cc(NCc3cnc(C)s3)c(=O)n(C)n2)nc1 [Example 13, 2-methyl-6-(((1S,2S)-2-(5-methylpyridin-2-yl)cyclopropyl)methoxy)-4-((2-methylthiazol-5-yl)methylamino)pyridazin-3(2H)-one]
3 | 48.5 | COc1ccc([C@H]2C[C@@H]2COc2cc(NCc3nc(C)ccc3C)c(=O)n(C)n2)nc1 [Example 71, 4-(((3,6-dimethylpyridin-2-yl)methyl)amino)-6-(((1S,2S)-2-(5-methoxy-pyridin-2-yl)cyclopropyl-)-methoxy)-2-methylpyridazin-3(2H)one]
4 | 0.056 | Cc1ccc([C@H]2C[C@@H]2COc2cc(NCc3cn(C)nc3C(F)(F)F)c(=O)n(C)n2)nc1 [Example 104, 2-methyl-4-(((1-methyl-3-(trifluoromethyl)-1H-pyrazol-4-yl)methyl)-amino)-6-(((1S,2S)-2-(5-methylpyridin-2-yl)cyclo-propyl)methoxy)pyridazin-3(2H)-one]
5 | 2.15 | Cc1ncc(CNc2cc(OC[C@H]3C[C@@H]3c3nn(C)c4ccccc34)nn(C)c2=O)s1 [Example 109, 2-methyl-6-(((1S,2S)-2-(1-methyl-1H-indazol-3-yl)cyclopropyl)methoxy)-4-((2-methylthiazol-5-yl)methylamino)pyridazin-3(2H)-one]
6 | 0.122 | COc1ccc([C@H]2C[C@@H]2COc2cc(NCc3ccnc(C)c3)c(=O)n(C)n2)nc1 [Example 62, 6-(((1S,2S)-2-(5-methoxy-pyridin-2-yl)cyclopropyl-)-methoxy)-2-methyl-4-(((2-methylpyridin-4-yl)methyl)amino)pyridazin-3(2H)-one]
7 | 1.3 | COc1ccc([C@H]2C[C@@H]2COc2cc(NCc3ccc(Cl)c(C)n3)c(=O)n(C)n2)nc1 [Example 75, 4-(((5-chloro-6-methyl-pyridin-2-yl)methyl)-amino)-6-(((1S,2S)-2-(5-methoxypyridin-2-yl)cyclopropyl)methoxy)2-methylpyridazin-3(2H)one]
8 | 9.4 | Cc1cnn(C)c1CNc1cc(OC[C@H]2C[C@@H]2c2ccn(C)n2)nn(C)c1=O [Example 86, 4-(((1,4-dimethyl-1H-pyrazol-5-yl)methyl)amino)-2-methyl-6-(((1S,2S)-2-(1-methyl-1H-pyrazol-3-yl)cyclopropyl)methoxy)-pyridazin-3(2H)-one]
9 | 0.072 | Cc1ccc([C@H]2C[C@@H]2COc2cc(NCc3cnn(C)c3)c(=O)n(C)n2)nc1 [Example 10, 2-methyl-4-((1-methyl-1H-pyrazol-4-yl)methylamino)-6-(((1S,2S)-2-(5-methylpyridin-2-yl)cyclopropyl)methoxy)-pyridazin-3(2H)-one]

Continued, molecule first:

Row | SMILES | Ki [nM]
10 | Cc1ccc(CNc2cc(OC[C@H]3C[C@@H]3c3ccc4ccccc4n3)nn(C)c2=O)c(C)n1 [Example 57, 4-(((2,6-dimethylpyridin-3-yl)methyl)amino)-2-methyl-6-(((1S,2S)-2-(quinolin-2-yl)cyclopropyl)methoxy)-pyridazin-3(2H)-one] | 0.004
11 | COc1ccc(CNc2cc(OC[C@H]3C[C@@H]3c3ccc(OC)cn3)nn(C)c2=O)cc1 [Example 133, 4-(4-methoxybenzyl-amino)-6-(((1S,2S)-2-(5-methoxypyridin-2-yl)-cyclopropyl)methoxy)-2-methylpyridazin-3(2H)one] | 0.021
12 | Cc1cccc([C@H]2C[C@@H]2COc2cc(NCc3cc(C)nn3C)c(=O)n(C)n2)n1 [Example 116, 4-((1,3-dimethyl-1H-pyrazol-5-yl)methylamino)-2-methyl-6-(((1S,2S)-2-(6-methylpyridin-2-yl)cyclopropyl)methoxy) pyridazin-3(2H)-one] | 0.005
13 | Cc1ccc([C@H]2C[C@@H]2COc2cc(NCc3ccc(C)nc3C)c(=O)n(C)n2)nc1 [Example 52, 4-(((2,6-dimethylpyridin-3-yl)methyl)amino)-2-methyl-6-(((1S,2S)-2-(5-methylpyridin-2-yl)cyclopropyl)methoxy)-pyridazin-3(2H)-one] | 0.007
14 | COc1ccc([C@H]2C[C@@H]2COc2cc(NCc3nnc(C)s3)c(=O)n(C)n2)nc1 [Example 4, 6-(((1S,2S)-2-(5-methoxy-pyridin-2-yl)cyclopropyl-)-methoxy)-2-methyl-4-((5-methyl-1,3,4-thiadiazol-2-yl)methylamino)pyridazin-3(2H)-one] | 0.015
15 | COc1ccc([C@H]2C[C@@H]2COc2cc(NCc3cnn(C)c3Cl)c(=O)n(C)n2)nc1 [Example 96, 4-(((5-chloro-1-methyl-1H-pyrazol-4-yl)methyl)-amino)-6-(((1S,2S)-2-(5-methoxypyridin-2-yl)-cyclopropyl)methoxy)-2-methylpyridazin-3(2H)one] | 1.27
16 | COc1ccc([C@H]2C[C@@H]2COc2cc(NCc3cnn(C)c3N(C)C)c(=O)n(C)n2)nc1 [Example 83, 4-(((5-(dimethylamino)-1-methyl-1H-pyrazol-4-yl)methyl)amino)-6-(((1S,2S)-2-(5-methoxypyridin-2-yl)cyclopropyl)methoxy)-2-methylpyridazin-3(2H)-one] | 42.6
17 | Cn1cc(CNc2cc(OC[C@H]3C[C@@H]3c3ccc(F)cn3)nn(C)c2=O)cn1 [Example 19, 6-(((1S,2S)-2-(5-fluoropyridin-2-yl)cyclo-propyl)methoxy)-2-methyl-4-((1-methyl-1H-pyrazol-4-yl)methylamino-)-pyridazin-3(2H)-one] | 1.26
18 | Cc1nc(CNc2cc(OC[C@H]3C[C@@H]3c3ccn(C)n3)nn(C)c2=O)sc1C [Example 128, 4-((4,5-dimethylthiazol-2-yl)methylamino)-2-methyl-6-(((1S,2S)-2-(1-methyl-1H-pyrazol-3-yl)cyclo-propyl)methoxy)pyridazin-3(2H)-one] | 0.368
19 | COc1ccc([C@H]2C[C@@H]2COc2cc(NCc3cncnc3)c(=O)n(C)n2)nc1 [Example 63, 6-(((1S,2S)-2-(5-methoxy-pyridin-2-yl)cyclopropyl-)-methoxy)-2-methyl-4-((pyrimidin-5-ylmethyl)-amino)pyridazin-3(2H)one] | 1.7
20 | Cc1ccc(CNc2cc(OC[C@H]3C[C@@H]3c3ccc(F)cn3)nn(C)c2=O)nc1 [Example 16, 6-(((1S,2S)-2-(5-fluoropyridin-2-yl)cyclopropyl)methoxy)-2-methyl-4-((5-methylpyridin-2-yl)methylamino)pyridazin-3(2H)-one] | 0.782
21 | COc1ccc([C@H]2C[C@@H]2COc2cc(NCCc3nccs3)c(=O)n(C)n2)nc1 [Example 136, 6-(((1S,2S)-2-(5-methoxy-pyridin-2-yl)cyclopropyl-)methoxy)-2-methyl-4-(2-(thiazol-2-yl)ethylamino-)pyridazin-3(2H)-one] | 10.3
22 | COc1ccc([C@H]2C[C@@H]2COc2cc(NCc3cn(C)nn3)c(=O)n(C)n2)nc1 [Example 147, 6-(((1S,2S)-2-(5-methoxy-pyridin-2-yl)-cyclopropyl-)methoxy)-2-methyl-4-((1-methyl-1H-1,2,3-triazol-4-yl)methylamino)pyridazin-3(2H)-one] | 0.066
